The text below walks through data of publication PMC7244523, “A Cell-based Screen in Actinomyces oris to Identify Sortase Inhibitors” (Scientific Reports, 2020).

Assay [1] addresses AoSrtA (Actinomyces oris, UniProt A0A0X8K1J2). Kind of assay: FRET-based in vitro sortase activity assay, AoSrtA. Type of assay: biochemical. The note with it: for Inhibition of AoSrtA in vitro: FRET assay; for IC50: IC50 (A. oris), AoSrtA 10 µM, Abz-LAQTG-Dap(Dnp)-NH2, 1 hour preincubation. On the procedure: (§1) The ability of the hit molecules to inhibit sortase activity was measured in vitro using an established FRET-based assay[13] that measures the ability of each enzyme to cleave a fluorogenic peptide substrate; Abz-LAQTG-Dap(Dnp)-NH2 and Abz-LPETG-Dap(Dnp)-NH2, substrates for ^AoSrtA and ^SaSrtA, respectively. Each enzyme cleaves between the threonine and glycine bond in these peptides, leading to a measurable increase in fluorescence (see Methods). The IC50 value of each compound was determined for both the ^AoSrtA and ^SaSrtA enzymes.
(§2) IC50 values for the six hit molecules against the ^AoSrtA and ^SaSrtA enzymes were determined as previously described, with some modifications. Briefly, molecules 1–6 were serial diluted 2-fold (from 1.25 mM to 2.44 µM, 500 µM to 0.98 µM final assay concentration) into 25 µM ^AoSrtA or ^SaSrtA (final assay concentration 10 µM) in buffer A (20 mM HEPES pH 7, 5 mM CaCl2, 0.05% TWEEN, 30% DMSO). The final DMSO concentration was […] in the assay. Samples were incubated 1 hour at room temperature and aliquoted into a 384-well plate (EK-30892). Thirty microliters of FRET peptide (Peptide 2.0) in buffer B (20 mM HEPES pH 7, 5 mM CaCl2, 0.05% TWEEN), […] for ^SaSrtA or Abz-LAQTG-Dap(Dnp)-NH2 for ^AoSrtA was added and the plate was immediately placed into a Flexstation II plate reader (Molecular Devices) and fluorescence was recorded at 335/420 nm excitation/emission wavelengths after 5 seconds of plate shaking to mix the reaction components. Plate fluorescence was measured over the course of 30 minutes.

In assay [2] the test system is A. oris ΔgspAΔsrtA. Kind of assay: Minimum inhibitory concentration, ΔgspA/ΔsrtA strain. In kind it is cell-based, Actinomyces oris. The note with it: BHI, 96-well plates, 18 hours. On the procedure: (§3) Two validation assays were performed for each hit molecule that measured: (i) the minimum inhibitory concentration (MIC) required to prevent growth of the MG-1 and ΔsrtA/ΔgspA strains, and (ii) their in vitro inhibitory activity against the enzymatic activity of the A. oris and S. aureus sortase enzymes. Initially, the selective growth effect originally observed in the HTS that used 384-well plates was more rigorously defined by determining each molecule’s MIC value for the MG-1 and ΔsrtA/ΔgspA strains. Cells were cultured in 100 µL media containing 2-fold dilutions of each small molecule between 320 µM and 0.039 µM (approximately 134 µg mL^−1 to […]).
(§4) Minimum inhibitory concentration (MIC) values were determined for molecules 1–6 according to the Clinical Laboratory Standard Institutes’ (CLSI) Methods for Dilution Antimicrobial Susceptibility Tests for Bacteria that Grow Aerobically, Approved standards-ninth edition; M07-A9 Vol. 32 No. 2 with the following alterations. Overnight cultures of MG-1 and ΔgspAΔsrtA were diluted to OD600 values of 0.01 before being added to BHI containing the appropriate molecule in 96-well plates. Mueller-Hinton broth was not usable because A. oris is a fastidious bacterium. Plates were sealed with Breatheasy seals and incubated for 18 hours, as A. oris has a doubling time of 2 hours. Plate seals were removed and OD600 values measured. Each plate was run with a positive control (cells, media, and Penicillin G), negative control (media and cells only), and contamination control (media only).

The target in assay [3] is SaSrtA (Staphylococcus aureus, UniProt Q2FV99). Put plainly: FRET-based in vitro sortase activity assay, SaSrtA. Type of assay: biochemical. On the procedure: as §1, §2
In assay [4] the test system is A. oris MG-1. Kind of assay: Minimum inhibitory concentration, MG-1 strain. Type of assay: cell-based. The note with it: Actinomyces oris, MG1; BHI, 96-well plates, 18 hours. On the procedure:
as §3, §4

For assay [5], the system named is A. oris MG-1 (wild-type) versus ΔsrtA/ΔgspA strain. Kind of assay: High-throughput cell-based growth screen and counter-screen (differential growth). Also noted: species or system Actinomyces oris. The note with it: differential effect on wild-type MG-1 and ΔgspAΔsrtA strains in the HTS; 10 µM, in duplicate; 100 = extreme difference, 0 = none. On the procedure:
In the primary screen, a total of 200,834 small molecules were tested for their ability to impair A. oris MG-1 growth. Cells were added to an optical density (OD600) of 0.01 in media containing 10 µM of each molecule, followed by a 15 hour incubation at 37 °C and end-point OD600 measurement. The growth effect of each molecule was normalized and expressed as a percent growth relative to the DMSO-only control (see Methods). A total of 1,904 molecules were classified as preliminary hits (0.95% of the molecules tested), as they reduced MG-1 growth after 15 hours by at least 34%, or 2.75 standard deviations below the average. The preliminary hits were then subjected to a counter-screen in which their growth effects on ΔsrtA/ΔgspA were determined. In order to eliminate potentially erroneously identified preliminary hits, the counter-screen and preliminary screen was performed in duplicate for the 1,904 preliminary hit molecules. A molecule was deemed as a hit if it caused greater than 15% differential growth effect in duplicate when the MG-1 and ΔsrtA/ΔgspA strains were compared. […] Data is plotted as the percentage of growth inhibition for each molecule (see Methods).
A total of 200,834 small molecule compounds (Molecular Screening Shared Resource, UCLA) were dissolved in 100% Omnisolv methylsulfoxide (MilliporeSigma MX1456P-6) and stored in 384-well polypropylene plates. Actinomyces oris MG-1 and ΔgspAΔsrtA were streaked out on BHI agar plates containing 50 µg/mL kanamycin and grown at 37 °C for 48 hours to allow single colonies to grow. Cultures were started from 2–3 colonies in BHI with 50 µg/mL kanamycin and allowed to grow until an OD600 between 0.1–0.4. Meanwhile, 384-well plates were filled with 25 µL BHI broth with 100 µg mL^−1 kanamycin (columns 1–22) or 200 µg mL^−1 Penicillin G (positive control, columns 23–24). Five hundred nanoliters of small molecules were transferred into the media (columns 3–22) using the Biomex FX^P automated work station with a 384-well pin tool. Precultures were diluted to an OD600 of 0.02 in 1 L BHI broth without antibiotics. Twenty five microliters of cell culture was immediately aliquoted into plates containing 25 µL media, antibiotics, and small-molecules using a Multidrop (Thermo LabSystems), resulting in 50 µg mL^−1 kanamycin and 10 µM small molecules with 1% DMSO or 100 µg mL^−1 Penicillin G. Plates were immediately lidded and placed into a humidified Cytomat 6001 incubator at 37 °C and allowed to grow for 15.5 hours. Following incubation, plates were removed from the Cytomat using a Thermo Spinnaker robotic arm on a rail, de-lidded, and placed into an EnVision high-speed plate reader for optical density measurement at 620 nm.
Raw data obtained from the screen was formatted in-house to upload to the Collaborative Drug Discovery Vault (www.collaborativedrug.com). Individual optical density readings were converted to a percent growth value ([ODsample-ODPositive control]/[ODNegative Control Average- ODPositive control]) and percent growth inhibition (1-percent growth). The Z-factors for the individual molecules were determined. Molecules with a Z-factor less than or equal to -2.75 were considered preliminary hits to advance forward a generous collection of preliminary hit molecules. Five microliters of each of the 1904 preliminary hit molecules were re-arrayed into new 384-well polypropylene plates. Each of the 1904 preliminary hits were assayed against both the MG-1 and ΔgspAΔsrtA strains in duplicate, on two separate days. Percent difference of growth was calculated according to the equation 100–100[(ODMG-1, Sample-ODMG-1, Positive Control)/ODΔgspAΔsrtA, Sample-ODΔgspAΔsrtA, Positive Control)]/[(ODMG-1, Average-ODMG-1, Positive Control)/ODΔgspAΔsrtA, Average-ODΔgspAΔsrtA, Positive Control)]. […] Molecules were ranked according to their relative growth.
For orientation: A counterscreen serves to expose hits that act by an unwanted route or on another target.

In brackets after ≈: the same amount, converted by molar mass.

Sequence of SaSrtA (Q2FV99 whole entry): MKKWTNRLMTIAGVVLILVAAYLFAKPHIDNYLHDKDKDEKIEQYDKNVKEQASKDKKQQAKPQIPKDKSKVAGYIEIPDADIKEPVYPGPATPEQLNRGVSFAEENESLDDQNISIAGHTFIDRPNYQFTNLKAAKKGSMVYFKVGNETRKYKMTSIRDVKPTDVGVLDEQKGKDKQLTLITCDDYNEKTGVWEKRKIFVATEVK
Sequence of AoSrtA (A0A0X8K1J2 entry or part of it): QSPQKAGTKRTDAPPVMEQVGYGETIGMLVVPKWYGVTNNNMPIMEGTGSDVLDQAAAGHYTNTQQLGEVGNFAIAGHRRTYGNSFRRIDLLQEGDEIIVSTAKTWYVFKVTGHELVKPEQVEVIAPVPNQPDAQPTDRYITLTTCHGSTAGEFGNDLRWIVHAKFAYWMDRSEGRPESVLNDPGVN

For orientation: IC50 means the midpoint of a concentration-inhibition curve. A high value points to lower potency. Broadly, the MIC is the least concentration at which growth counts as inhibited. Turning to `O=C(c1cc(-c2ccc(F)cc2)n[nH]1)N1CC(c2nc(-c3ccccc3)no2)C1` [Compound 5], in assay [1], the “Inhibition of AoSrtA in vitro” value is reported as “failed to inhibit” and the IC50 is more than 488 µM. The “MIC (ΔgspA/ΔsrtA)” value in assay [2] stood at 2.0 µg/mL (≈ 5.14 µM). This compound also showed an IC50 in assay [3] of 282 µM. This compound came in with a minimum inhibitory concentration (MIC) in assay [4] of 1 µg/mL (≈ 2.57 µM). Further, in assay [5], the “Differential Growth” value was 96.2 ± 0.3%.
For the compound `Cc1cc(NS(=O)(=O)c2ccc(C(C)(C)C)cc2)n(C2CCS(=O)(=O)C2)n1` (stereo not drawn) [Compound 2], in assay [1], the “Inhibition of AoSrtA in vitro” value is reported as “failed to inhibit” and the IC50 is more than 486 µM. For the same compound, the “MIC (ΔgspA/ΔsrtA)” value in assay [2] came to 2.1 µg/mL (≈ 5.1 µM). In assay [3], this compound returned a half-maximal inhibitory concentration (IC50) of more than 486 µM. Besides, it took 0.5 µg/mL (≈ 1.21 µM) to inhibit growth in assay [4] (MIC). Moreover, the “Differential Growth” value in assay [5] is reported as 96.2 ± 0.3%.
As to `Cc1ccc(S(=O)(=O)Cc2nc3cc(-c4ccccc4)sc3c(=O)[nH]2)cc1` [Compound 1], in assay [1], the “Inhibition of AoSrtA in vitro” value is given as “failed to inhibit” and the IC50 was more than 479 µM. The “MIC (ΔgspA/ΔsrtA)” value in assay [2] worked out at 4.0 µg/mL (≈ 10.1 µM). In assay [3], the 50% inhibitory concentration (IC50) is 202 µM. Further, the MIC in assay [4] is 2 µg/mL (≈ 5.04 µM). Also, the “Differential Growth” value in assay [5] amounted to 65.7 ± 0.5%.
